A short description of data set [1]: Alternative dosing strategy (Example 206): blood concentration of small molecule ARM compound. It is filed as in vivo. The following applies: co-dosed vs sequentially dosed intravenously with anti-cotinine antibody. The source says: FIG. 5: Alternative dosing strategy of small molecule ARM compound to anti-cotinine antibody, as described in Example 206, with anti-cotinine antibody administered intravenously and ARM compound (Example 1) administered subcutaneously following a 2-hour delay from antibody dosing at various molar ratios of small molecule ARM: antibody; data shown is blood concentration of small molecule ARM compound at various timepoints following administration.

For data set [2], the target named is anti-cotinine antibody (SEQ ID NO: 9/10, humanized version). The experiment in a line: SPR binding of anti-cotinine antibody to ARM compounds, Biacore 8k, 25° C., humanized antibody (Example 202). The source says: (§1) Anti-cotinine antibodies having a heavy chain sequence of SEQ ID NO: 9 and a light chain sequence of SEQ ID NO: 10 (humanized version) or a heavy chain sequence of SEQ ID NO: 11 and a light chain sequence of SEQ ID NO: 12 (rabbit version) were captured via the Fc domain to a protein A or A/G surface on flow cell 2 of a CMS sensor chip using the Biacore 8k.
(§2) After antibody capture, a 1500 second wait step was included to reduce drift in the binding step. ARM compounds of Formula (I) were then flowed over the captured antibodies at varying top concentrations ranging from 250 nM to 4 μM (see Table 6 below for top concentration values). The top concentration was diluted 4-fold over 5 dilutions (with a 0 nM compound cycle included to blank subtract the data). Association and dissociation times of the ARMs compounds of Formula (I) varied between experiments as follows and indicated in Table 6 below: reference 1-association for 600 seconds and dissociation for 1200 seconds at 20 μl/min; reference 2-association for 240 seconds and dissociation for 300 seconds at 30 μl/min; reference 3-association for 360 seconds and dissociation for 600 seconds at 30 μl/min. Anti-cotinine antibody bound to the protein A or A/G surface was regenerated using 50 mM NaOH. Experiments were run at 25° C. at pH 7.4 using HBS-EP+ buffer using Biacore 8K control software and evaluated using Biacore Insight Evaluation software. Curves were fit with the 1:1 kinetic fit inherent to the software, utilising a local Rmax and local drift setting.
(§3) Anti-cotinine antibody was tested for binding to ARMs compounds of Formula (I) of the invention in the above assay in or more experimental runs and the results are shown in Table 6 below. Affinity is reported as a pKd value. The pKd value is the negative log of the Kd value, wherein the Kd value is the dissociation constant measured in molar (M) as noted above. For compounds tested in more than one experimental run, the pKd value is reported as an average.
In general terms: SPR reads the build-up and loss of mass on a sensor chip optically.

In data set [3] the test system is anti-cotinine antibody (SEQ ID NO: 11/12, rabbit version). Nature of the data set: SPR binding of anti-cotinine antibody to ARM compounds, Biacore 8k, 25° C., rabbit antibody (Example 202).
Excerpt: as §1, §2, §3

Another data set relates to CCR2+ expressing cells. The experiment in a line: Alternative dosing strategy (Example 206): percent depletion of CCR2+ expressing cells by flow cytometry. In kind it is in vivo. The following applies: co-dosed vs sequentially dosed intravenously with anti-cotinine antibody. Background: In flow cytometry, cells or beads pass a laser one at a time.
The mark [4] stands for this setting: time reference 3 (association 360 s, dissociation 600 s, 30 μl/min).

Where “and” joins values, the source holds several entries; their conditions need not be identical. Identical values can stand only once.

As usually defined, the pKd is −log10 of the Kd, conventionally taken in molar units. A high value points to a small Kd.

Take `CC(C)N(C)[C@@H]1CC[C@H](N2CC[C@H](Nc3ncnc4ccc(C(F)(F)F)cc34)C2=O)[C@H](NC(=O)[C@H]2CC[C@H](NC(=O)CCCO[C@H]3CC[C@H](OCCNC(=O)[C@H]4CC(=O)N(C)[C@@H]4c4cccnc4)CC3)CC2)C1` [Example 1, (2S,3S)-N-(2-(((1R,4S)-4-(4-(((1R,4R)-4-(((1R,2S,5R)-5-(Isopropyl(methyl)amino)-2-((S)-2-oxo-3-((6-(trifluoromethyl)quinazolin-4-yl)amino)pyrrolidin-1-yl)cyclohexyl)carbamoyl)cyclohexyl)amino)-4-oxobutoxy)cyclohexyl)oxy)ethyl)-1-methyl-5-oxo-2-(pyridin-3-yl)pyrrolidine-3-carboxamide]: the “PK (blood concentration of small molecule ARM compound)” value in data set [1] is “unchanged”. In data set [2] (time reference 1 (association 600 s, dissociation 1200 s, 20 μl/min)), the kd was 0.000456 s⁻¹ and 0.000649 s⁻¹. In addition, in data set [2] (setting [4]), the ka was determined as 1.64e+06 M⁻¹ s⁻¹, the kd came to 0.000414 s⁻¹ and the pKd was 9.6. Also, in data set [3] (setting [4]), the ka is 5.57e+06 M⁻¹ s⁻¹, the kd is 0.000156 s⁻¹ and the pKd was 10.55. Further, the “PD (percent depletion of CCR2+ expressing cells)” value in the data set on CCR2+ expressing cells is reported as “unchanged”.

In data set [2] (setting [4]), `CN1C(=O)C[C@H](C(=O)NCCO[C@H]2CC[C@H](OCCCC(=O)N[C@H]3CC[C@H](C(=O)N[C@@H]4C[C@H](NC(C)(C)C)CC[C@@H]4N4CC[C@H](Nc5ncnc6ccc(C(F)(F)F)cc56)C4=O)CC3)CC2)[C@H]1c1cccnc1` [Example 10, (2S,3S)-N-(2-(((1R,4S)-4-(4-(((1R,4R)-4-(((1R,2S,5R)-5-(tert-Butylamino)-2-((S)-2-oxo-3-((6-(trifluoromethyl)quinazolin-4-yl)amino)pyrrolidin-1-yl)cyclohexyl)carbamoyl)cyclohexyl)amino)-4-oxobutoxy)cyclohexyl)oxy)ethyl)-1-methyl-5-oxo-2-(pyridin-3-yl)pyrrolidine-3-carboxamide] showed a ka of 1.42e+06 M⁻¹ s⁻¹, a kd of 0.000484 s⁻¹ and a pKd of 9.47. For the same compound, the pKd entry in data set [3] (time reference 2 (association 240 s, dissociation 300 s, 30 μl/min)) is listed as “Poor fit”. The negative logarithm of the Kd (pKd) result in data set [3] (setting [4]) is given as “kd outside”.

(Values after patent US12521393B2, “Cytotoxicity targeting chimeras for CCR2-expressing cells” (GLAXOSMITHKLINE INTELLECTUAL PROPERTY DEVELOPMENT LIMITED, priority 2021, dated 2026).)
